According to patent US20160361251A1, “NOVEL PROCESS FOR PRODUCING TRANSMUCOSAL PHARMACEUTICAL FORMULATIONS AND FORMULATIONS THUS OBTAINED” (Clemann Group, priority 2013, published 2016):

B1: rBetv1: recombinant allergen rBetv1, a characteristic allergen of trees of the order of fagales and in particular birch (protein, UniProt P15494 2-160, looked up)
Major pollen allergen Bet v …: GVFNYETETTSVIPAARLFKAFILDGDNLFPKVAPQAISSVENIEGNGGPGTIKKISFPEGFPFKYVKDRVDEVDHTNFKYNYSVIEGGPIGDTLEKISNEIKIVATPDGGSILKISNKYHTKGDHEVKAEQVKASKEMGETLLRAVESYLLAHSDAYN

Experiment: Dissolution of active ingredient in ternary mixture stearate 1500/TPGS/water
Assay type: physicochemical
Description: For this purpose, 10 g of ternary mixture are prepared from 4.50 g of stearate 1500, 500 mg of TPGS and 5 g of water at 50° C. This mixture is maintained at 50° C. with stirring for 5 minutes.
In an Erlenmeyer provided with magnetic stirring, 1.80 g of stearate 1500 and 200 mg of TPGS are mixed at 50° C. with stirring for 3 minutes in order to form a homogenous and intimate mixture of both polymers. The mixture is then slowly cooled to 40° C.
1 ml of an aqueous solution of rBetv1 is then prepared at a concentration of 3 mg/ml.
1 ml of this solution is then introduced into the previous mixture of molten polymer maintained at 40° C.

Molecule | dissolution in ternary mixture (stearate 1500/TPGS/water 4.50 g/500 mg/5 g at 50° C., 4.54 g powder added) | dissolution in molten polymer mixture (1 ml of 3 mg/ml aqueous solution into 1.80 g stearate 1500 + 200 mg TPGS at 40° C.)
CNCC(O)c1ccc(O)c(O)c1.O=C(O)C(O)C(O)C(=O)O (centres unmarked) [adrenaline bitartrate] | total and rapid | 
B1 |  | complete and rapid
